In paper PMC8513058, “Synthesis and Evaluation of Novel 1,2,6-Thiadiazinone Kinase Inhibitors as Potent Inhibitors of Solid Tumors” (Molecules, 2021):

Experiments:
[1] = tested on: MCF-7 cells; experiment: Cancer cell line viability screen (alamarBlue), MCF7; settings: Homo sapiens, MCF7, 72 h, read-out: IC50 MCF7
Description: (§1) This included pancreatic, bladder, prostate, breast, chordoma, and lung cancer cell lines while a skin fibroblast cell line was used as a toxicity control [33, 34, 35, 36].
(§2) DU145 and MCF-7 cells were cultured in MEM medium supplemented with 10% FBS and 1% penicillin/streptomycin. […] Cells were seeded in 384-well plates and were treated with test compound in quadruplicate 24 h after plating. Cell viability was assessed at 72 h using alamarBlue (ThermoFisher, Waltham, MA, USA). […] IC50 values were determined by nonlinear regression using GraphPad PrismTM software (GraphPad Software Inc., San Diego, CA, US).

[2] = tested on: 5637 cells; experiment: Cancer cell line viability screen (alamarBlue), 5637; settings: 72 h, read-out: IC50 5637
Description: as §1, §2

[3] = tested on: U-CH1 cells; experiment: Cancer cell line viability screen (alamarBlue), UCH1; settings: UCH1, 72 h, read-out: IC50 UCH1
Description: as §1
(§3) Cells were seeded in 384-well plates and were treated with test compound in quadruplicate 24 h after plating. Cell viability was assessed at 72 h using alamarBlue (ThermoFisher, Waltham, MA, USA). […] IC50 values were determined by nonlinear regression using GraphPad PrismTM software (GraphPad Software Inc., San Diego, CA, US).

[4] = tested on: PANC-1 cells; experiment: Cancer cell line viability screen (alamarBlue), PANC1; settings: Homo sapiens, PANC-1, 72 h, read-out: IC50 PANC1
Description: as §1, §2

[5] = tested on: DU145 cells; experiment: Cancer cell line viability screen (alamarBlue), DU145; settings: Homo sapiens, DU-145, 72 h, read-out: IC50 DU145
Description: as §1, §2

[6] = tested on: WS-1 cell line; experiment: Toxicity control viability screen (alamarBlue), WS-1 skin fibroblasts; settings: for IC50: WS1, 72 h, read-out: IC50 WS-1
Description: as §1, §2

[7] = tested on: A-431 cells; experiment: Cancer cell line viability screen (alamarBlue), A431; settings: Homo sapiens, A-431, 72 h, read-out: IC50 A431
Description: as §1, §3

[8] = tested on: U-CH2 cells; experiment: Cancer cell line viability screen (alamarBlue), UCH2; settings: UCH2, 72 h, read-out: IC50 UCH2
Description: as §1, §3

Structure (SMILES) | IC50 [1] | melting point | IC50 [2] | IC50 [3] | IC50 [4] | IC50 [5] | IC50 [6] | IC50 [7] | IC50 [8] | IC50 WS-1 ([6]; skin fibroblast cell line, toxicity control, viability at 72 h, alamarBlue, average of 4 independent experiments)
O=c1c(Nc2ccc3[nH]ncc3c2)nsnc1-c1cccc(O)c1 [Compound 23, 5-(3-Hydroxyphenyl)-3-[(1H-indazol-5-yl)amino]-4H-1,2,6-thiadiazin-4-one] | 92 µM | 282 to 283 °C | > 100 µM | 71 µM | > 100 µM | 84 µM | > 100 µM | > 100 µM | > 100 µM | –
O=c1c(-c2ccnc3[nH]ccc23)nsnc1N1CCOCC1 [Compound 19, 3-Morpholino-5-(1H-pyrrolo[2,3-b]pyridin-4-yl)-4H-1,2,6-thiadiazin-4-one] | 46 µM | 256 to 257 °C | > 100 µM | > 100 µM | 11 µM | 14 µM | > 100 µM | > 100 µM | > 100 µM | –
CN1CCN(c2nsnc(-c3ccnc4[nH]ccc34)c2=O)CC1 [Compound 20, 3-(4-Methylpiperazin-1-yl)-5-(1H-pyrrolo[2,3-b]pyridin-4-yl)-4H-1,2,6-thiadiazin-4-one] | > 100 µM | 195 to 196 °C | > 100 µM | – | > 100 µM | > 100 µM | – | – | – | –
CN1CCN(c2nsnc(Nc3ccc4[nH]ncc4c3)c2=O)CC1 [Compound 22, 3-[(1H-Indazol-5-yl)amino]-5-(4-methylpiperazin-1-yl)-4H-1,2,6-thiadiazin-4-one] | 25 µM | 262 to 263 °C | > 100 µM | > 100 µM | > 100 µM | 50 µM | 24 µM | > 100 µM | > 100 µM | –
COc1cccc(-c2nsnc(Nc3ccc4[nH]ncc4c3)c2=O)c1 [Compound 25, 3-[(1H-Indazol-5-yl)amino]-5-(3-methoxyphenyl)-4H-1,2,6-thiadiazin-4-one] | 38 µM | 220 to 221 °C | 13 µM | 52 µM | > 100 µM | > 100 µM | 71 µM | > 100 µM | 99 µM | –
CC(=O)c1cccc(Nc2nsnc(-c3ccnc4[nH]ccc34)c2=O)c1 [Compound 14, 3-[(3-Acetylphenyl)amino]-5-(1H-pyrrolo[2,3-b]pyridin-4-yl)-4H-1,2,6-thiadiazin-4-one] | > 100 µM | 271 to 273 °C | 15 µM | 58 µM | > 100 µM | > 100 µM | 92 µM | > 100 µM | > 100 µM | –
CN1CCN(c2nsnc(Nc3ccnc4[nH]ccc34)c2=O)CC1 [Compound 21, 5-(4-Methylpiperazin-1-yl)-3-[(1H-pyrrolo[2,3-b]pyridin-4-yl)amino]-4H-1,2,6-thiadiazin-4-one] | > 100 µM | 286 to 287 °C | > 100 µM | 97 µM | > 100 µM | 51 µM | > 100 µM | > 100 µM | > 100 µM | –
COc1cccc(Nc2nsnc(-c3ccnc4[nH]ccc34)c2=O)c1 [Compound 15, 3-[(3-Methoxyphenyl)amino]-5-(1H-pyrrolo[2,3-b]pyridin-4-yl)-4H-1,2,6-thiadiazin-4-one] | > 100 µM | 257 to 258 °C | 15 µM | 67 µM | > 100 µM | > 100 µM | > 100 µM | > 100 µM | > 100 µM | –
Cc1ccc(O)cc1-c1nsnc(Nc2ccc3[nH]ncc3c2)c1=O [Compound 24, 5-(5-Hydroxy-2-methylphenyl)-3-[(1H-indazol-5-yl)amino]-4H-1,2,6-thiadiazin-4-one] | 13 µM | 268 to 269 °C | > 100 µM | 67 µM | 26 µM | 15 µM | > 100 µM | > 100 µM | > 100 µM | no toxicity
Cc1ccc(O)cc1Nc1nsnc(-c2ccnc3[nH]ccc23)c1=O [Compound 18, 3-[(5-Hydroxy-2-methylphenyl)amino]-5-(1H-pyrrolo[2,3-b]pyridin-4-yl)-4H-1,2,6-thiadiazin-4-one] | > 100 µM | 304 to 305 °C | 55 µM | > 100 µM | > 100 µM | > 100 µM | > 100 µM | > 100 µM | > 100 µM | –
